According to patent US10544113B2 (priority 2016, dated 2020):
“Also recorded” adds a separate entry of the source. Read-outs that look alike come from different tables or passages of the source.

Columns and labels:
mu-opioid receptor (MOR) = mu-opioid receptor (MOR) (Homo sapiens (Human), UniProt P35372); test: cell-based
MOR = MOR (Rattus norvegicus, UniProt P33535); test: cAMP assay (adenylyl cyclase inhibition) in HEK-MOR cells; assay type: cell-based
Procedure: (§1) Human embryonic kidney 293 (HEK-293) cells constitutively expressing MOR (HEK-MOR) and DOR (HEK-DOR) (kindly provided by Dr. Ping-Yee Law, University of Minnesota, USA) were cultured in high-glucose Dulbecco's modified Eagle's medium (DMEM, GIBCO) supplemented with 400 μg/mL G418 (Sigma), 2 mM L-glutamine and P/S/F (100 units/mL penicillin, 100 μg/mL streptomycin, 10% fetal bovine serum). Chinese hamster ovary (CHO)-K1 cells, stably expressing hMOR and Gα15 (CHO-K1/MOR/Gα15), were cultured in F12 medium (GIBCO) supplemented with 10 μg/mL Hygromycin B (Invivogen), 20 μg/mL Zeocin (Invivogen) P/S/F (100 units/mL penicillin, 100 μg/mL streptomycin, 10% fetal bovine serum). The cultures were incubated at 37° C. in a humidified 5% CO2 incubator.
Briefly, 2000 HEK-MOR cells or HEK-DOR cells were plated in 10 μL/well of DMEM in 96-well solid bottom white plates and 10 μL/well compound in HBSS in the presence with 1 μM forskolin and 100 μM 3-isobutyl-1-methylxanthine (IBMX). After 30 minutes of incubation at room temperature, 10 μL/well of labeled d2-cAMP and 10 μL/well of anti-cAMP antibody (both diluted in lysis buffer) were added to each well. Two hours later, plates were measured using the FlexStationIII (Molecular Devices Corp.) with excitation at 330 nm and emissions of 620 nm and 665 nm. […]

DOR = test: cAMP assay (adenylyl cyclase inhibition) in HEK-DOR cells; assay type: cell-based; details: in the presence of naloxone (20 nM)
Procedure: as §1
Briefly, 2000 HEK-MOR cells or HEK-DOR cells were plated in 10 μL/well of DMEM in 96-well solid bottom white plates and 10 μL/well compound in HBSS in the presence with 1 μM forskolin and 100 μM 3-isobutyl-1-methylxanthine (IBMX). After 30 minutes of incubation at room temperature, 10 μL/well of labeled d2-cAMP and 10 μL/well of anti-cAMP antibody (both diluted in lysis buffer) were added to each well. Two hours later, plates were measured using the FlexStationIII (Molecular Devices Corp.) with excitation at 330 nm and emissions of 620 nm and 665 nm.
To characterize of novel opioid receptor AAMs, the activity and selectivity of compound 58 were tested by inhibiting adenylyl cyclase activity (i.e., cAMP assay).
Opoid receptors inhibit adenylyl cyclase activity through Gi/o family of heterotrimeric G proteins. A cAMP-accumulation assay was performed to determine whether opioid receptor AAMs affect a G protein-dependent signaling pathway.

Sequence of mu-opioid receptor (MOR) (P35372 whole entry): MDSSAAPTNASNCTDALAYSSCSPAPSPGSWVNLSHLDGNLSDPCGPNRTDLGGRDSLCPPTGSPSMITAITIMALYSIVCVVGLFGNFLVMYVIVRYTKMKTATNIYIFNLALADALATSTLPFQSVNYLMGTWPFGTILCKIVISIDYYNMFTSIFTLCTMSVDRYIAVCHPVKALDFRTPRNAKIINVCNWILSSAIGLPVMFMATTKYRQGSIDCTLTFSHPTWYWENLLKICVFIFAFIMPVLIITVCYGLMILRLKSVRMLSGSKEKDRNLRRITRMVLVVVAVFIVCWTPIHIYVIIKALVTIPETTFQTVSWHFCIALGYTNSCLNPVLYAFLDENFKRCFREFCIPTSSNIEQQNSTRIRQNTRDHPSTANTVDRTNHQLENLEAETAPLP
Sequence of MOR (P33535 whole entry, looked up): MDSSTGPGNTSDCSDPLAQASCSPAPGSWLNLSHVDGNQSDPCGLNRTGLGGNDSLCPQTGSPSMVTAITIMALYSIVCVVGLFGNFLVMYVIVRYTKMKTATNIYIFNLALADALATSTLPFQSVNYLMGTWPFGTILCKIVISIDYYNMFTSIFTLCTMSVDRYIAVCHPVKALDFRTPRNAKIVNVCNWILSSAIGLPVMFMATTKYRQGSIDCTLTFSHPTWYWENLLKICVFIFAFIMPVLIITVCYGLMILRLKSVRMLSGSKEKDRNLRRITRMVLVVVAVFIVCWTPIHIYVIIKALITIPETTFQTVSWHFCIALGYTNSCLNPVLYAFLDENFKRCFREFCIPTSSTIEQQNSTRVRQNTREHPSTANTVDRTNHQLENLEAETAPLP

Q: For `Cc1cc(C(=O)O)ccc1N1C(=O)CSC1c1ccc(F)cc1` (centres unmarked), which EC50 (mu-opioid receptor (MOR); co-administrated with naloxone (20 nM), read-out: EC50 of calcium release) is on record?
A: The EC50 was 1300 nM.

Q: And the “activity combined with peptide MOR antagonist CTOP” value (mu-opioid receptor (MOR); combination with CTOP)?
A: The value was “no activity was observed”.

Q: What about the AUC (mu-opioid receptor (MOR); combined with Cyprodime hydrochloride 500 nM) of the same molecule?
A: Its AUC is 7893.

Q: And the EC50 (mu-opioid receptor (MOR); combined with Cyprodime hydrochloride 500 nM, read-out: EC50)?
A: Its EC50 is 5120 ± 2520 nM.

Q: And the AUC (mu-opioid receptor (MOR); combined with Nalmefene 20 nM)?
A: Its AUC is 8506.

Q: What about the AUC (mu-opioid receptor (MOR); combined with Naloxonazine dihydrochloride 20 nM) of the same molecule?
A: The AUC was 11819.33.

Q: And the EC50 (mu-opioid receptor (MOR); combined with Naloxonazine dihydrochloride 20 nM, read-out: EC50)?
A: Its EC50 is 642 nM.

Q: What about the AUC (mu-opioid receptor (MOR); combined with Naltrexone 20 nM) of the same molecule?
A: The AUC was 12980.33.

Q: And the EC50 (mu-opioid receptor (MOR); combined with Naltrexone 20 nM, read-out: EC50)?
A: The EC50 was 630 ± 217 nM.

Q: What about the AUC (mu-opioid receptor (MOR); combined with Samidorphan 10 nM) of the same molecule?
A: Its AUC is 13179.

Q: And the EC50 (mu-opioid receptor (MOR); combined with Samidorphan 10 nM, read-out: EC50)?
A: Its EC50 is 5530 nM.

Q: What about the AUC (mu-opioid receptor (MOR); combined with Samidorphan 20 nM) of the same molecule?
A: The AUC was 14094.

Q: And the EC50 (mu-opioid receptor (MOR); combined with Samidorphan 20 nM, read-out: EC50)?
A: The EC50 was 5270 nM.

Q: And the “FLIPR Ca^2+ AUC” value (mu-opioid receptor (MOR); combined with a MOR antagonist)?
A: Its value is 16361.

Q: And the EC50 (mu-opioid receptor (MOR); combined with a MOR antagonist, read-out: FLIPR Ca^2+ EC50)?
A: The EC50 was 1100 nM.

Q: What about the “AAM effect with naltrexone” value (mu-opioid receptor (MOR); combined with naltrexone, compared with naloxone) of the same molecule?
A: The value was “worked as an AAM of naltrexone, with similar potency but a higher magnitude of efficacy”.

Q: What about the “calcium release in the presence of an opioid antagonist” value (mu-opioid receptor (MOR); combined with one of the listed opioid antagonists) of the same molecule?
A: Its value is “induced significant calcium release”.

Q: And the AUC (mu-opioid receptor (MOR); combined with β-Funaltrexamine hydrochloride 20 nM)?
A: Its AUC is 8553.5.

Q: And the EC50 (mu-opioid receptor (MOR); combined with β-Funaltrexamine hydrochloride 20 nM, read-out: EC50)?
A: The EC50 was 346 ± 209 nM.

Q: And the “response on its own (calcium release)” value (mu-opioid receptor (MOR); compound alone, no antagonist)?
A: Its value is “did not show responses on their own; also recorded: did not elicit any response on its own”.

Q: What about the “effect on Emax and potency of morphine (PAM/NAM test)” value (mu-opioid receptor (MOR); morphine CRC with compound at 30, 10, 3.3 μM) of the same molecule?
A: Its value is “neither Emax nor potency of morphine was significantly altered”.

Q: What about the “calcium release in the presence of naloxone” value (mu-opioid receptor (MOR); naloxone (25 nM)) of the same molecule?
A: Its value is “induced a significant calcium release”.

Q: What about the “effect on concentration-response curve of naloxone (Emax, potency)” value (mu-opioid receptor (MOR); naloxone CRC with compound at different concentrations) of the same molecule?
A: Its value is “both Emax and potency of naloxone were altered”.

Q: And the “selectivity mu over delta opioid receptor” value (MOR; HEK-MOR vs HEK-DOR, with naloxone (20 nM))?
A: Its value is “selective for mu-over delta-opioid receptors”.

Q: And the “inhibition of adenylyl cyclase activity” value (MOR; HEK-MOR, combined with naloxone (20 nM))?
A: Its value is “significantly inhibited adenylyl cyclase activity”.

Q: And the “effect on adenylyl cyclase activity” value (DOR)?
A: Its value is “produced no effect”.
